Test results from ChEMBL document CHEMBL2321758, “Discovery of 4-{4-[(3R)-3-Methylmorpholin-4-yl]-6-[1-(methylsulfonyl)cyclopropyl]pyrimidin-2-yl}-1H-indole (AZ20): a potent and selective inhibitor of ATR protein kinase with monotherapy in vivo antitumor activity” (J Med Chem, 2013).
Converted amounts (≈) assume the structure as drawn. The source made the active and inactive calls. No cut-off for these calls is given here.

Tests used:
[1] = target: T1, Serine/threonine-protein kinase ATR (Homo sapiens, UniProt Q13535); format: cell-based, HT-29
T1 sequence (Q13535 whole entry): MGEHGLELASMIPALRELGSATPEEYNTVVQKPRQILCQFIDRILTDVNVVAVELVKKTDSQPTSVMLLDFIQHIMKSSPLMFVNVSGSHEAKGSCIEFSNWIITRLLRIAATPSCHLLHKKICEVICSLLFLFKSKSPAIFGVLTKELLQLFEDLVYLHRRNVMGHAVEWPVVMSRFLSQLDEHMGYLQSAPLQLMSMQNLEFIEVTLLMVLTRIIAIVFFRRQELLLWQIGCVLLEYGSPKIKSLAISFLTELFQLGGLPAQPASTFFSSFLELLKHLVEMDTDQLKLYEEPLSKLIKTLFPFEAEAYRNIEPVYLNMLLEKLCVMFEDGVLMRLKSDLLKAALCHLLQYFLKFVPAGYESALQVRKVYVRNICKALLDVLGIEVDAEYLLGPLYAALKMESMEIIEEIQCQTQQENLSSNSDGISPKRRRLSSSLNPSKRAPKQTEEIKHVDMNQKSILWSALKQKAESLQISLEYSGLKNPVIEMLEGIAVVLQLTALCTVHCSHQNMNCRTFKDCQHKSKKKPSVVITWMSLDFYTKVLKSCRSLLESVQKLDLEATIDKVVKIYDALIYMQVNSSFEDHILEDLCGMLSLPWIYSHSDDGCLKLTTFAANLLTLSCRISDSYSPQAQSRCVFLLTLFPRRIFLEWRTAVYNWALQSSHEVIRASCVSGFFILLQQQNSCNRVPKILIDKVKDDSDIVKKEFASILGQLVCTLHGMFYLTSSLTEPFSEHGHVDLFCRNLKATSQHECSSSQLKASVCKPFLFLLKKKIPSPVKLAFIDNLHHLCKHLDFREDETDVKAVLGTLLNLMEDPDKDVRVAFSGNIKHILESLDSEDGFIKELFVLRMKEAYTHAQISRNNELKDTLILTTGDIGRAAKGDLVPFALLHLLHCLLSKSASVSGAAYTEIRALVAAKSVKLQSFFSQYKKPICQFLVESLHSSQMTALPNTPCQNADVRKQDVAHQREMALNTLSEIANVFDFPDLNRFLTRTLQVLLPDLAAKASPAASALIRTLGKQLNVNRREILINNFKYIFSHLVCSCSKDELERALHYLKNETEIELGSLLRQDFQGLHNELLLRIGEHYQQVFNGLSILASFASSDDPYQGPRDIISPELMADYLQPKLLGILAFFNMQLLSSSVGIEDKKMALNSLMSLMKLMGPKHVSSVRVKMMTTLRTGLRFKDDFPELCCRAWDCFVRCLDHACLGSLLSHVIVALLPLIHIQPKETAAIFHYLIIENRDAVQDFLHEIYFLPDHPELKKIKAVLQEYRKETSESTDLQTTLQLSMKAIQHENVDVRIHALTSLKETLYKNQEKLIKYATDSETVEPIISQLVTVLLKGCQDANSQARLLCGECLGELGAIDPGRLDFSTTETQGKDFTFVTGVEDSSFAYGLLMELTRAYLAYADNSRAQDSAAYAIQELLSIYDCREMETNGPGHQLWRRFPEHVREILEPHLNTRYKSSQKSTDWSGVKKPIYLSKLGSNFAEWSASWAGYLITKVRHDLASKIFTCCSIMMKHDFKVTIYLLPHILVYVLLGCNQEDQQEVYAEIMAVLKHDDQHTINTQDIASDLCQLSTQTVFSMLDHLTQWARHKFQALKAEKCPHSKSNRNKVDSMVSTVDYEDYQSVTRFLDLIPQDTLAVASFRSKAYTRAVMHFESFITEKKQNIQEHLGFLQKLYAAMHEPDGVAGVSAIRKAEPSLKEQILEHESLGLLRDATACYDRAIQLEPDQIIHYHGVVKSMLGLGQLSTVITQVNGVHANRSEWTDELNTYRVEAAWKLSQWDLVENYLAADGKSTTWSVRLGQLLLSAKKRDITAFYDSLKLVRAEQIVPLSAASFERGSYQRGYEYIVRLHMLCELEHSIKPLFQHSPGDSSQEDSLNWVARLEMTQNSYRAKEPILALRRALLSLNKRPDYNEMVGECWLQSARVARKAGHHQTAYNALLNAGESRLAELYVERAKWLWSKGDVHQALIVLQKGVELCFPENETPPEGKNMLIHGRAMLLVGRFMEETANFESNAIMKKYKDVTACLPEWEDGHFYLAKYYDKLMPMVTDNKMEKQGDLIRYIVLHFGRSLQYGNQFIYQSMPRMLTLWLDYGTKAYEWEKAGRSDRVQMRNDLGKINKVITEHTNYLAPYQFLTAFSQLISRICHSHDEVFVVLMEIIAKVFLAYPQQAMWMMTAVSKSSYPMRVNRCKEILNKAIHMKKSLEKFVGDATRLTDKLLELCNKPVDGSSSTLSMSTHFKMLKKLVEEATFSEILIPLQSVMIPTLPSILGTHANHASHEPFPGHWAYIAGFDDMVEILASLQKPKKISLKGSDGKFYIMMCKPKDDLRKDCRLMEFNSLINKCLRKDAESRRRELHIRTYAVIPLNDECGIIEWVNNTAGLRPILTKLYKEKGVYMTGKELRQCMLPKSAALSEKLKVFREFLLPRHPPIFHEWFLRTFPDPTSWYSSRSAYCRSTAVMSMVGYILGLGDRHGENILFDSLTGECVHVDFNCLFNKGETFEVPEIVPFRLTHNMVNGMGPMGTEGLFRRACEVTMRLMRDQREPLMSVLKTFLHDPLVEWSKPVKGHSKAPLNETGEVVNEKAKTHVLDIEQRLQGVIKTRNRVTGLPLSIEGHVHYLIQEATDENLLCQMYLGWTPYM

[2] = target: T1, Serine/threonine-protein kinase ATR
[3] = target: T2, Serine/threonine-protein kinase mTOR (Homo sapiens, UniProt P42345); experiment: Inhibition of mTOR-mediated AKT phosphorylation at serine 473 in human MDA-MB-468 cells; format: cell-based
[4] = target: DNA-dependent protein kinase catalytic subunit (Homo sapiens, UniProt P78527); experiment: Inhibition of DNA-PK (unknown origin)
[5] = target: T3, Phosphatidylinositol 4,5-bisphosphate 3-kinase catalytic subunit alpha isoform (Homo sapiens, UniProt P42336); experiment: Inhibition of PI3Kalpha (unknown origin)
T3 sequence (P42336 whole entry, canonical isoform): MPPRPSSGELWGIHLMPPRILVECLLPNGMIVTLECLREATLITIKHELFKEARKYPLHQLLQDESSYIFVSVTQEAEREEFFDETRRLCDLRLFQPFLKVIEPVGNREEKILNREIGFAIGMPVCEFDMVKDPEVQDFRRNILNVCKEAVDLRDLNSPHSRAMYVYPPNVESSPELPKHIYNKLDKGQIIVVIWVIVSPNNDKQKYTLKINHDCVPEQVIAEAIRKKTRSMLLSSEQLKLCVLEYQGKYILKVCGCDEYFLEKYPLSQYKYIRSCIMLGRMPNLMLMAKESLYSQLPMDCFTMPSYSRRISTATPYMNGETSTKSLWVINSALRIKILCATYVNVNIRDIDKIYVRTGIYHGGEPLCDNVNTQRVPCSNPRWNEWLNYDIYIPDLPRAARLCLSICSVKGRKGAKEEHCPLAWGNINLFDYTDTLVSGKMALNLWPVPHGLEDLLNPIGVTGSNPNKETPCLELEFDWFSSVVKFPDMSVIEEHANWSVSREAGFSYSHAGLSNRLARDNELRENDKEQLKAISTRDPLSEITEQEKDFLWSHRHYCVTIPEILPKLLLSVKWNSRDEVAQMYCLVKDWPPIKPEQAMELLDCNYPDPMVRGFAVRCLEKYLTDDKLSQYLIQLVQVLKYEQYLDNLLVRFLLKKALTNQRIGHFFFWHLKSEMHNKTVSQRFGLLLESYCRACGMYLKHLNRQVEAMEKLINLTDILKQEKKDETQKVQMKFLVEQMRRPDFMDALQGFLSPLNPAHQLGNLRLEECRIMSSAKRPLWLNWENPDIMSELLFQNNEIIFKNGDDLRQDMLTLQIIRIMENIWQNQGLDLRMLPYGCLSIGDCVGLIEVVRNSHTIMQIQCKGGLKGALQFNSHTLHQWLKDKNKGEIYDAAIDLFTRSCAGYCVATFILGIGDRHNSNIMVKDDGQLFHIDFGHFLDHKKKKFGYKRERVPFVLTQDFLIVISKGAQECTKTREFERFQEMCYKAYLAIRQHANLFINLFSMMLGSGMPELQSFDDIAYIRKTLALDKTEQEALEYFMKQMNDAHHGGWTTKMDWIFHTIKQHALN

[6] = target: T2, Serine/threonine-protein kinase mTOR; experiment: Inhibition of recombinant mTOR (unknown origin)
physchem = conditions: octanol/buffer, pH 7.4
[7] = Fraction unbound in rat plasma; format: ADME, cell-free
[8] = Bioavailability in rat; format: ADME, organism-based; conditions: in vivo
[9] = Plasma clearance in rat; format: ADME, organism-based
[10] = Volume of distribution in rat; format: ADME, organism-based; conditions: in vivo
[11] = AUC in Han-Wistar rat at 4 umol/kg, po; format: ADME, organism-based; conditions: plasma
[12] = Apparent permeability from apical to basolateral side in human Caco2 cells at 10 uM at pH 6.5; format: ADME, cell-based; conditions: Caco-2, pH 6.5
[13] = Solubility of the compound in phosphate buffer after 24 hrs at pH 7.4 by LC-UV-MS analysis; format: physicochemical
in vitro = conditions: rat, hepatocytes
[14] = Aqueous solubility of the compound at pH 7.4; format: physicochemical; conditions: buffer
[15] = Dissociation constant, pKa of the compound; format: physicochemical
[16] = target: Voltage-gated inwardly rectifying potassium channel KCNH2 (Homo sapiens, UniProt Q12809)
Chain of Voltage-gated inwardly rectifying potassium channel KCNH2 (Q12809 whole entry): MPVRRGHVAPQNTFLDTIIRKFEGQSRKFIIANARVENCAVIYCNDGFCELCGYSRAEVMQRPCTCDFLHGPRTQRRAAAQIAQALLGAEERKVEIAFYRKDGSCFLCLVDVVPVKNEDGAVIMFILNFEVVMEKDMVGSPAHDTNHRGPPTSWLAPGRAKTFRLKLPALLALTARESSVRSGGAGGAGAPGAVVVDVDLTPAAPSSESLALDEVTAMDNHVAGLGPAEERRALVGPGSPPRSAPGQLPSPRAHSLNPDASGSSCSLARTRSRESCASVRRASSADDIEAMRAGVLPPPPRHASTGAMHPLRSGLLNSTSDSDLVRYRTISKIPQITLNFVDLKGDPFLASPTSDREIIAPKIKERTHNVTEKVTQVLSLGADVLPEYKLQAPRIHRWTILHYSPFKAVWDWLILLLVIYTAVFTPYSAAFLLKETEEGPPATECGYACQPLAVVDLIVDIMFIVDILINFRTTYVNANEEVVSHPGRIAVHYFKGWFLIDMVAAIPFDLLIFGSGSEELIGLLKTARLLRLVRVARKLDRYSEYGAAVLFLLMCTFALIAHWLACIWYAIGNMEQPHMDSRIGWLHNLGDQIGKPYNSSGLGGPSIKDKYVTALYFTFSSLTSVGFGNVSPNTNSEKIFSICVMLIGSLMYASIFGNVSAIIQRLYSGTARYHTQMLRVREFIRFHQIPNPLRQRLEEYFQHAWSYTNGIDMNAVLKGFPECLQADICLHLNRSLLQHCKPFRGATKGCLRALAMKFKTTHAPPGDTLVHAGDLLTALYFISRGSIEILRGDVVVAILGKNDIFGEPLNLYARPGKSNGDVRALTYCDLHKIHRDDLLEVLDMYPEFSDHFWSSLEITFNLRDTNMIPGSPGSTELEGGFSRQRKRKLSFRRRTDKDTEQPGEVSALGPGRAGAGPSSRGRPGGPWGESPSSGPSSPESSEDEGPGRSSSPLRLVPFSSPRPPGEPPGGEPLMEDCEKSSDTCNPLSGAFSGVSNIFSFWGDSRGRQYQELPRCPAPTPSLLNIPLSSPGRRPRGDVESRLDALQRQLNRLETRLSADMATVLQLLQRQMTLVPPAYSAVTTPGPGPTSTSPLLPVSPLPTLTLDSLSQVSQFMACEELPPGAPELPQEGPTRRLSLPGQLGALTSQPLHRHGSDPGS

LoVo [17] = experiment: Antitumor activity against human LoVo cells xenografted in Swiss nu/nu mouse assessed as tumor growth inhibition at 50 mg/kg, po qd for 13 days relative to control; format: functional, organism-based; design: dose 50 mg/kg
LoVo [18] = experiment: Antitumor activity against human LoVo cells xenografted in Swiss nu/nu mouse assessed as tumor growth inhibition at 25 mg/kg, po bid for 13 days relative to control; format: functional, organism-based; design: dose 25 mg/kg
[19] = target: T3, Phosphatidylinositol 4,5-bisphosphate 3-kinase catalytic subunit alpha isoform; experiment: Inhibition of PI3Kalpha (unknown origin) assessed as residual activity at 1 uM
[20] = target: T2, Serine/threonine-protein kinase mTOR; experiment: Inhibition of recombinant mTOR (unknown origin) assessed as residual activity at 1 uM
[21] = Oral bioavailability in Han-Wistar rat at 4 umol/kg; format: ADME, organism-based; conditions: in vivo

Row | Structure (SMILES) | IC50 [1] | IC50 [2] | other results
1 | Cc1cc(-c2nc(N3CCOCC3)cc(C3(S(C)(=O)=O)CC3)n2)c2cc[nH]c2c1 | 0.49 µM | 0.008 µM | –
2 | Cc1ccc(-c2nc(N3CCOCC3)cc(C3(S(C)(=O)=O)CC3)n2)c2cc[nH]c12 | 6.3 µM | 0.22 µM | –
3 | CS(=O)(=O)C1(c2cc(N3CCOCC3)nc(-c3ccccc3)n2)CC1 | > 30 µM | 0.36 µM | –
4 | CS(=O)(=O)C1(c2cc(N3CCOCC3)nc(-c3cccc4[nH]ncc34)n2)CC1 | 13 µM | 0.13 µM | –
5 | CS(=O)(=O)C1(c2cc(N3CCOCC3)nc(-c3cccc4[nH]ccc34)n2)CC1 | – | – | fraction unbound [7]: 0.23; bioavailability [8]: 70%; clearance [9]: 15 mL/min/kg; Vd [10]: 2.1 L/kg; AUC [11]: 3.1 µM·h; Papp A→B at 10 µM [12]: 21 ×10⁻⁶ cm/s; solubility at 24 h [13]: 4.4 µM (≈ 1.75 µg/mL); IC50 [3]: 3.2 µM; IC50 [5]: 0.94 µM; hepatocyte CLint at 1 µM (in vitro): < 3 µL/min/1e6 cells; logD (physchem): 2.2
6 | C[C@H]1COCCN1c1cc(C2(S(C)(=O)=O)CC2)nc(-c2cccc3[nH]ccc23)n1 | – | – | logD (physchem): 2.8
7 | CC(C)(c1cc(N2CCOCC2)nc(-c2cccc3[nH]ccc23)n1)S(C)(=O)=O | 0.28 µM | 0.003 µM | fraction unbound [7]: 0.2; AUC [11]: 0.76 µM·h; Papp A→B at 10 µM [12]: 16 ×10⁻⁶ cm/s; solubility at 24 h [13]: < 0.4 µM; IC50 [3]: 2.7 µM; IC50 [5]: 1.6 µM; IC50 [6]: 0.19 µM; hepatocyte CLint at 1 µM (in vitro): 41 µL/min/1e6 cells; logD (physchem): 2.7
8 | CS(=O)(=O)Cc1cc(N2CCOCC2)nc(-c2ccc3[nH]ccc3c2)n1 | > 30 µM | 1.7 µM | –
9 | Cc1c[nH]c2cccc(-c3nc(N4CCOCC4)cc(C4(S(C)(=O)=O)CC4)n3)c12 | > 30 µM | 14 µM | –
10 | CS(=O)(=O)C1(c2cc(N3CCOCC3)nc(-c3cccc4[nH]ccc34)n2)CCNCC1 | 0.42 µM | 0.009 µM | fraction unbound [7]: 0.4; AUC [11]: 0.04 µM·h; Papp A→B at 10 µM [12]: 0.2 ×10⁻⁶ cm/s; solubility at 24 h [13]: 230 µM (≈ 102 µg/mL); pKa [15]: 8.8; IC50 [3]: 1.5 µM; IC50 [5]: 2.7 µM; IC50 [16]: > 33 µM; hepatocyte CLint at 1 µM (in vitro): 9.4 µL/min/1e6 cells; logD (physchem): 0.7
11 | CS(=O)(=O)Cc1cc(N2CCOCC2)nc(-c2ccc3cc[nH]c3c2)n1 | > 30 µM | 1.5 µM | –
12 | C[C@@H]1COCCN1c1cc(C2(S(C)(=O)=O)CC2)nc(-c2cccc3[nH]ccc23)n1 | – | – | TGI (LoVo [17]): Active; TGI (LoVo [18]): Active; Activity [19]: < 50%; Activity [20]: < 50%; bioavailability [21]: 62%; Papp A→B at 10 µM [12]: 23 ×10⁻⁶ cm/s; logD (physchem): 2.7
13 | CC[C@@H]1COCCN1c1cc(C2(S(C)(=O)=O)CC2)nc(-c2cccc3[nH]ccc23)n1 | 4.4 µM | 0.17 µM | logD (physchem): 3
14 | CS(=O)(=O)Cc1cc(N2CCOCC2)nc(-c2cccc3cc[nH]c23)n1 | > 30 µM | 0.18 µM | –
15 | O=S(=O)(c1ccccc1)C1(c2cc(N3CCOCC3)nc(-c3cccc4[nH]ccc34)n2)CC1 | 0.59 µM | 0.005 µM | –
16 | CN1CCC(c2cc(N3CCOCC3)nc(-c3cccc4[nH]ccc34)n2)(S(C)(=O)=O)CC1 | 3.7 µM | 0.061 µM | logD (physchem): 1.9
17 | CS(=O)(=O)C1(c2cc(N3CCOCC3)nc(-c3cccc(N)c3)n2)CC1 | > 30 µM | 1.2 µM | –

More lines, main results first:

Row | IC50 [1] | IC50 [2] | Structure (SMILES) | other results
18 | > 30 µM | 3.3 µM | Cn1ccc2c(-c3nc(CS(C)(=O)=O)cc(N4CCOCC4)n3)cccc21 | –
19 | 24 µM | 0.72 µM | CN(C)C(=O)c1cc(-c2nc(N3CCOCC3)cc(C3(S(C)(=O)=O)CC3)n2)c2cc[nH]c2c1 | –
20 | 2.5 µM | 0.028 µM | Cc1cc2c(-c3nc(N4CCOCC4)cc(C4(S(C)(=O)=O)CC4)n3)cccc2[nH]1 | –
21 | 1.1 µM | 0.03 µM | CS(=O)(=O)Cc1cc(N2CCOCC2)nc(-c2cccc3[nH]ccc23)n1 | IC50 [3]: 5.9 µM; IC50 [4]: 2.7 µM; IC50 [5]: 3.8 µM; IC50 [6]: 0.33 µM; logD (physchem): 1.7
22 | 0.72 µM | 0.016 µM | CS(=O)(=O)C1(c2cc(N3CCOCC3)nc(-c3cc(Cl)cc4[nH]ccc34)n2)CC1 | –
23 | > 30 µM | 1.1 µM | CS(=O)(=O)C1(c2cc(N3CCOCC3)nc(-c3cccc4[nH]c(C(N)=O)cc34)n2)CC1 | –
24 | 7.2 µM | 0.3 µM | CS(=O)(=O)C1(c2cc(N3CCOCC3)nc(-c3cccc4[nH]c(C#N)cc34)n2)CC1 | –
25 | 9.2 µM | 0.041 µM | CS(=O)(=O)C1(c2cc(N3CCOCC3)nc(-c3cc(C(N)=O)cc4[nH]ccc34)n2)CC1 | –
26 | 2 µM | 0.033 µM | O=S(=O)(c1ccccn1)C1(c2cc(N3CCOCC3)nc(-c3cccc4[nH]ccc34)n2)CC1 | –
27 | > 30 µM | – | Cc1ccc2[nH]ccc2c1-c1nc(N2CCOCC2)cc(C2(S(C)(=O)=O)CC2)n1 | solubility [14]: 96 µM (≈ 39.6 µg/mL)
28 | 1.5 µM | – | CS(=O)(=O)C1(c2cc(N3CCOCC3)nc(-c3cc(C#N)cc4[nH]ccc34)n2)CC1 | –
29 | 16 µM | 0.12 µM | CS(=O)(=O)C1(c2cc(N3CCOCC3)nc(-c3cccc4c3CC(=O)N4)n2)CC1 | –
30 | 0.77 µM | 0.013 µM | CC(C)S(=O)(=O)C1(c2cc(N3CCOCC3)nc(-c3cccc4[nH]ccc34)n2)CC1 | –
31 | 0.18 µM | 0.004 µM | CS(=O)(=O)C1(c2cc(N3CCOCC3)nc(-c3cccc4[nH]ccc34)n2)CCOCC1 | fraction unbound [7]: 0.25; AUC [11]: 0.32 µM·h; Papp A→B at 10 µM [12]: 28 ×10⁻⁶ cm/s; solubility at 24 h [13]: 1.8 µM (≈ 0.797 µg/mL); IC50 [3]: 3.3 µM; IC50 [5]: 1.4 µM; IC50 [16]: > 33 µM; hepatocyte CLint at 1 µM (in vitro): 23 µL/min/1e6 cells; logD (physchem): 2.4
32 | 2.8 µM | 0.033 µM | O=S(=O)(C1CCOCC1)C1(c2cc(N3CCOCC3)nc(-c3cccc4[nH]ccc34)n2)CC1 | –
33 | 2.9 µM | 0.046 µM | O=S(=O)(C1CCNCC1)C1(c2cc(N3CCOCC3)nc(-c3cccc4[nH]ccc34)n2)CC1 | –
